Measurements taken from PMC11054303, “Design and Synthesis of Novel N-Benzylidene Derivatives of 3-Amino-4-imino-3,5-dihydro-4H-chromeno[2,3-d]pyrimidine under Microwave, In Silico ADME Predictions, In Vitro Antitumoral Activities and In Vivo Toxicity” (Pharmaceuticals, 2024).
Entries after “also recorded” stand apart in the source; their conditions may differ.

How the values were obtained:
HCT 116 = test: Antiproliferative assay, HCT 116; type: cell-based, human
Method: The potential antiproliferative activity of these novel 3-(N-phenylmethyliden)amino-4-imino-3,5-dihydro-4H-chromeno[2,3-d]pyrimidine 10(a-i) and 10-(N-phenylmethyliden)amino-11-imino-11H-naphto[1′,2′:5,6]pyrano[2,3-d]pyrimidine 10(j-l) was evaluated in a panel of eight tumoral cell lines and in diploid skin fibroblasts used as normal cell lines for control. For these antitumor assays, chosen cell lines represent diverse types of human cancer, which are, respectively, human hepatocellular carcinoma (Huh7 D12), human colon adenocarcinoma (Caco2), human breast adenocarcinoma (MDA-MB231), MDA-MB468 for human breast carcinoma which correspond to the Triple Negative Breast Cancer (TNBC), human colon carcinoma (HCT116), PC3 as cell line initiated from bone metastasis of grade IV prostatic adenocarcinoma from a person, MCF7 as breast cancer line isolated from a person and PANC1, as human pancreatic cancer cell line. The potential antiproliferative activity was preliminarily evaluated in vitro at a 25 μM single dose.
The IC50 was calculated from the full dose-response curve and used as a parameter for the antiproliferative activity of the new compounds.
Skin diploid fibroblastic cells were provided by BIOPREDIC International Company (Rennes, France). Huh-7D12 (Ref ECACC: 01042712), Caco2 (Ref ECACC: 86010202), MDA-MB-231 (Ref ECACC: 92020424), MDA-MB-468, HCT-116 (Ref ECACC: 91091005), PC3 (Ref ECACC: 90112714), and MCF7 cell lines were obtained from the ECACC collection. PANC1 cell lines, a generous gift of LBAI Inserm 1227 (Brest, France). Cells were grown according to ECACC recommendations in DMEM for Huh-D12, MDA-MB-231, MDA-MB-468 and fibroblast, in EMEM for Caco2, in McCoy’s for HCT-116 and RPMI for PC3 at 37 °C and 5% CO2. All culture media with 10% of FBS, 1% of penicillin-streptomycin and 2 mM glutamine.
Chemicals were solubilized in DMSO at a concentration of 10 mM (stock solution) and diluted in a culture medium to the desired final concentrations. […] The toxicity test of the chemicals on these cells was as follows: 2 × 10^3 cells for HCT-116 cells or 4 × 10^3 for the other cells were seeded in 96-multi-well plates in triplicate and left for 24 h for attachment, spreading and growing. Then, cells were exposed for 48 h to increasing concentrations of chemicals, ranging from 0.1 μM to 25 μM, in a final volume of 120 μL of culture medium. After 48 h of treatment, cells were washed in PBS and fixed in a cooled 90% ethanol/5% acetic acid solution for 20 min. The nuclei were stained with Hoechst 3342 (B2261 Merck Sigma-Aldrich) and counted. Image acquisition and analysis were performed using automated imaging analysis with a Cellomics Arrayscan VTI/HCS Reader (Thermo/Scientific, Waltham, MA, USA). The survival percentages were calculated as the percentage of cell number after chemical treatment over cell number after DMSO treatment. The IC50 was graphically determined.

[1] = test system: Store-Operated Ca^+2 Entry (SOCE); test: Store-operated calcium entry (SOCE) assay in HEK293 cells; type: cell-based, human; conditions: 1.25 to 50 μM added 5 min before recording, 2 μM thapsigargin, then 1.8 mM Ca2+
Method: Thapsigargin (TG), an inhibitor of endoplasmic reticulum Ca^+2-ATPase, is used to deplete intracellular calcium stores in a Ca^+2-free solution and therefore activate SOCE. […] In the context of a preliminary exploration of the functional effects of our molecules of interest and in the absence of a significant inhibition at a low concentration of compound 10h on the reference cell line we used (HEK293) no further exploration of the modulatory effect of this compound on cancer cell lines was initiated.
The HEK293 cell line was maintained in DMEM High Glucose with Sodium Pyruvate ([…]) and antibiotics (1% of penicillin/streptomycin) in a humidified incubator at 37 °C, supplemented with 5% of CO2.
For Ca^2+ measurement experiments, HEK293 cells were seeded overnight into 96 wells of a black clear bottom plate (Corning Ref: 3603) at […] in 100 µL culture medium. The resting medium was aspirated and cells were loaded with Fura-2 acetoxymethyl ester (Fura-2 QBT™) fluorochrome. […]
Intracellular calcium levels were evaluated by recording changes in the fluorescence of the dual-wavelength fluorescent calcium-sensitive dye Fura-2AM using the plate reader FlexStation 3™ (Molecular Devices, Sunnyvale, CA, USA). Dual excitation wavelength capability permits ratiometric measurements of Fura-2AM peak fluorescence emission at 510 nm after excitations at 340 and 380. […]

[2] = test system: zebrafish Danio rerio embryos; test: Zebrafish embryo toxicity assay (Zebratox, FET)
Method: Fertilized eggs at 24–48 h post-fertilization (hpf) were selected and transferred to a 96-well plate (1 embryo/well). […] DMSO (0.6%) was used as vehicle control for the test compounds. The exposure duration continued up to 72 hpf because it is the endpoint of embryonic development [41]. The dead embryos were eliminated, and the fertilized eggs were imaged at 0, 24, 48 and 72 hpf.
Eggs were collected 2 h post-fertilization (hpf) and kept in glass Petri dishes containing water for subsequent examination under a binocular microscope to confirm fertilization. […] Chemical treatments were performed by adding DMSO alone (negative control), or test molecule. These experiments were performed in four technical replicates.
The experiments were performed using a Zeiss inverted fluorescent microscope (Observer Z1). The zebrafish toxicological test (Zebratox) was realized as follows: the 24 h post-fertilization embryos were arrayed by hand with one embryo per well in black-walled 96-well microplates for fluorescence assays (Perkin Elmer, Waltham, MA, USA). The embryos were treated before hatching from 0 to 72 h post-fertilization. The 20 mM DMSO stock chemicals were diluted in fish water and added to the wells at final concentrations from 0.0 2µM to 5 μM. The negative control (0.25% DMSO) was added to each replicate plate. The experiments were realized in triplicate in three independent plates. […] The zebrafish fertilized eggs were provided by the ImPACcell-Biosit Zebrafish facilities (Rennes, France).

[3] = 48 and 72 hpf treatment, up to 5 μM

COc1cccc2c1Oc1ncn(/N=C/c3ccccc3O)c(=N)c1C2 [10h, (3E) 3-N-(2-Hydroxyphenylmethylidene)amino-4-imino-9-methoxy-3,5-dihydro-4H-chromeno[2,3-d]pyrimidine]
IC50 (HCT 116; Homo sapiens, HCT-116, 48 h incubation, average of three assays, standard error ± 0.5 μM): 240 nM | Selectivity Index (SI) HCT 116 (HCT 116; SI = IC50 fibroblasts/IC50 on HCT 116): > 104.2 | inhibition of SOCE [1]: dose-dependent inhibition; also recorded: partially inhibits SOCE in HEK293 cells in a dose-dependent manner; also recorded: dose-dependent effect but with a minor inhibitory effect on SOCE at low concentrations | hatching of the embryos ([2]; 5 μM dose at 72 hpf): complete hatching | toxic effect on zebrafish embryos ([2]; 5 μM dose at 72 hpf): no toxic effect; also recorded: without toxic effect | hatching of the embryos [2, 3]: complete hatching | toxic effect on zebrafish embryos [2, 3]: no toxic effect
